From ChEMBL document CHEMBL3588788, “Structure-activity relationship of hybrids of Cinchona alkaloids and bile acids with in vitro antiplasmodial and antitrypanosomal activities” (Eur J Med Chem, 2015)
pIC50: −log10 of the molar value.

Tests used:
[1] = Cytotoxicity against human WI38 cells by MTT assay; format: cell-based, WI-38; settings: Homo sapiens, WI-38; read-out: IC50
[2] = test system: Trypanosoma brucei brucei; assay: Antitrypanosomal activity against Trypanosoma brucei brucei Lister 427 bloodstream forms by microtiter plate based assay; format: functional, organism-based
[3] = test system: Trypanosoma brucei brucei; assay: Potency index, ratio of IC50 for CND to IC50 for test compound against Trypanosoma brucei brucei Lister 427 bloodstream forms by microtiter plate based assay; format: functional
Plasmodium falciparum [4] = assay: Antiplasmodial activity against Plasmodium falciparum 3D7 assessed as reduction in parasite viability by parasite lactate dehydrogenase assay; format: functional, organism-based
[5] = Selectivity index, ratio of IC50 against human WI38 cells to IC50 for Plasmodium falciparum 3D7; format: toxicity, cell-based, WI-38; settings: read-out: Ratio IC50
Plasmodium falciparum [6] = assay: Potency index, ratio of IC50 for CND to IC50 for test compound against Plasmodium falciparum 3D7 by parasite lactate dehydrogenase assay; format: functional
in vitro = settings: human, WI38 cells
Description: Selectivity index, ratio of IC50 against human WI38 cells to IC50 for Trypanosoma brucei brucei Lister 427 bloodstream forms

[7] = test system: Trypanosoma brucei brucei; assay: Potency index, ratio of IC50 for CN to IC50 for test compound against Trypanosoma brucei brucei Lister 427 bloodstream forms by microtiter plate based assay; format: functional
Plasmodium falciparum [8] = assay: Potency index, ratio of IC50 for CN to IC50 for test compound against Plasmodium falciparum 3D7 by parasite lactate dehydrogenase assay; format: functional

SMILES | pIC50 [1] | pIC50 [2] | Ratio IC50 [3] | pIC50 (Plasmodium falciparum [4]) | selectivity ratio [5] | Ratio IC50 (Plasmodium falciparum [6]) | selectivity ratio (in vitro) | Ratio IC50 [7] | Ratio IC50 (Plasmodium falciparum [8])
C=C[C@H]1CN2CC[C@H]1C[C@H]2[C@H](O)c1cc(CC[C@@H](C)[C@H]2CC[C@H]3[C@@H]4C[C@H](OC(C)=O)[C@@H]5C[C@H](OC(C)=O)CC[C@]5(C)[C@H]4CC[C@]23C)nc2ccccc12 | 5.38 | 5.93 | 52.5 | 6.94 | 36 | 8.3 | 3.5 |  | 
C=C[C@H]1CN2CC[C@H]1C[C@H]2[C@H](O)c1cc(CC[C@@H](C)[C@H]2CC[C@H]3[C@@H]4[C@H](O)C[C@@H]5C[C@H](O)CC[C@]5(C)[C@H]4C[C@H](O)[C@]23C)nc2ccccc12 | 5.09 | 5.76 | 35.6 | 5.74 | 4 | 0.5 | 4.6 |  | 
C=C[C@H]1CN2CC[C@H]1C[C@H]2[C@H](O)c1cc(CC[C@@H](C)[C@H]2CC[C@H]3[C@@H]4CC[C@@H]5C[C@H](OC(C)=O)CC[C@]5(C)[C@H]4C[C@H](OC(C)=O)[C@]23C)nc2ccccc12 | 5.39 | 6.24 | 108.2 | 7.11 | 53 | 12.5 | 7.1 |  | 
C=C[C@H]1CN2CC[C@H]1C[C@H]2[C@H](O)c1cc(CC[C@@H](C)[C@H]2CC[C@H]3[C@@H]4[C@H](OC(C)=O)[C@H](OC(C)=O)[C@@H]5C[C@H](OC(C)=O)CC[C@]5(C)[C@H]4CC[C@]23C)nc2ccccc12 | 5.43 | 6.28 | 119.8 | 7.44 | 104 | 26.6 | 7.2 |  | 
C=C[C@H]1CN2CC[C@H]1C[C@H]2[C@H](O)c1cc(CC[C@@H](C)[C@H]2CC[C@H]3[C@@H]4C[C@H](O)[C@@H]5C[C@H](O)CC[C@]5(C)[C@H]4CC[C@]23C)nc2ccccc12 | 5.48 | 6.28 | 116.7 | 7.04 | 36 | 10.5 | 6.2 |  | 
C=C[C@H]1CN2CC[C@H]1C[C@H]2[C@H](O)c1cc(CC[C@@H](C)[C@H]2CC[C@H]3[C@@H]4[C@H](OC(C)=O)C[C@@H]5C[C@H](OC(C)=O)CC[C@]5(C)[C@H]4C[C@H](OC(C)=O)[C@]23C)nc2ccccc12 | 5.17 | 5.83 | 42.4 | 7.39 | 165 | 23.7 | 4.6 |  | 
C=C[C@H]1CN2CC[C@H]1C[C@@H]2[C@@H](O)c1cc(CC[C@@H](C)[C@H]2CC[C@H]3[C@@H]4C[C@H](O)[C@@H]5C[C@H](O)CC[C@]5(C)[C@H]4CC[C@]23C)nc2ccccc12 | 5.26 | 6.14 |  | 7.15 | 77 |  | 7.6 | 94.5 | 4.1
C=C[C@H]1CN2CC[C@H]1C[C@@H]2[C@@H](O)c1cc(CC[C@@H](C)[C@H]2CC[C@H]3[C@@H]4CC[C@@H]5C[C@H](OC(C)=O)CC[C@]5(C)[C@H]4C[C@H](OC(C)=O)[C@]23C)nc2ccccc12 | 5.32 | 5.82 |  | 6.77 | 28.1 |  | 3.2 | 45.1 | 1.7
